Several values for one entry are separate records, joined by “and”; a condition that tells them apart may be missing. Equal values may be shown once. Read-outs that look alike come from different tables or passages of the source.
Key:
[1] = tested on: bacterial translation (E. coli S30 extract); experiment: In vitro inhibition of translation in E. coli S30 extracts (luciferase reporter); type: biochemical; settings: mean ± SE of at least three independent repeats, read-out: Inhibition of translation—IC50, Bacteria
Source text: (§1) In order to assess cytosolic ribosome susceptibility and selectivity to putative anti-leishmanial compounds, we performed three different cell-free transcription-translation assays in S30 extracts of E. coli (Promega), rabbit reticulocytes (Promega) and L. tarentolae (Jena Bioscience). […] The ribosomes derived from this species are highly similar to L. donovani ribosomes. Three plasmids, compatible with each extract system, were used in this study: pBESTlucTM (Promega) for the prokaryotic translation assay, Luciferase T7 DNA (Promega) for the reticulocytes and pLEXSY-invitro2-EGFP (Jena Bioscience) for Leishmania. Firefly luciferase was used as a reporter gene for the bacterial and reticulocyte systems and EGFP for Leishmania. […] Assays were performed in white polystyrene 96-well flat bottom plates (Nunc) for the luciferase and black polystyrene 384-well flat-bottom plates (Greiner) for the EGFP. Incubation times were 60 min at 37 °C, 90 min at 30 °C and 120 min at 26 °C for the bacterial, reticulocyte and Leishmania systems, respectively. Reactions were stopped by quick snap cooling followed by a 5-min incubation on ice. Luciferase activity was measured for each well following the addition of 50 μl Luciferase Assay reagent (Promega) by recording the chemi-luminescence signal on […] (Tecan). EGFP fluorescence (λ ex = 488 nm; λ em = 507 nm) was recorded on Tecan Infinite R®F200 microplate reader (Tecan). Extracts lacking the circular DNA template were used as negative control to calculate the fluorescence/chemi-luminescence background. Reaction mixtures without compound presence were used as positive control and were regarded as 100% translation. At least six different concentrations were used to plot each translation inhibition curve, experiments were performed in three independent repeats in duplicates. Half-maximal inhibition concentration (IC50) values were calculated from the concentration–response fitting curves of using GraFit7 software.

[2] = tested on: leishmanial cytosolic ribosome; experiment: In vitro inhibition of translation in L. tarentolae lysates (cell-free transcription-translation, EGFP reporter); type: biochemical; settings: for IC50: L. tarentolae lysates, mean ± SE of at least three independent repeats, read-out: Inhibition of translation—IC50, Leishmania
Source text: as §1

[3] = tested on: leishmanial decoding (UGA stop codon read-through); experiment: In vitro assessment of misreading (dual-luciferase UGA stop codon read-through) in L. tarentolae lysates; type: biochemical; settings: for Misreading activity (UGA stop codon read-through) at IC50 levels: at the compound's IC50 concentration, L. tarentolae lysates
Source text: To examine AG modes of action in Leishmania, we designed a dual-reporter assay whereby an in-frame linker containing a UGA stop mutation was introduced in between two genes encoding Renilla and Firefly luciferases cloned into an in vitro Leishmania expression system. A similar system was previously used to assess stop codon read-through events in bacteria as well as other eukaryotes, and as these levels seemed to correspond to tRNA misreading levels it has also been previously used to evaluate infidelity of translation[38],[39].
The content of a p2luc dual-luciferase derived from an SV-40 vector with either wild type or an in-frame TGA stop codon poly-linker was cloned into pLEXSY-invitro2 that is compatible with Leishmania in vitro translation (Jena Bioscience). SV-40 constructs were a generous gift by Professor Timor Baasov. Cloning has been performed by restriction-free (RF) PCR methodology as previously described by Unger et al.[40].
5′-[…]-3′ and 5′-[…]-3′ were used as forward and reverse primers, respectively. Primers were produced by custom design (Sigma). The in vitro misreading assays were performed in L. tarentolae lysates and were designed similarly to the inhibition of translation assay reported herein. The main modifications were that the final reaction volume was adjusted to 20 μl and that the assay has been performed in white polystyrene 96-well flatbottom plates (Nunc). Luciferase activity was determined after 120 min incubation at 26 °C, using the Dual luciferase reporter assay system (Promega) and was performed according to the manufacturer’s instructions.

[4] = target: rabbit reticulocyte lysate translation; experiment: In vitro inhibition of translation in rabbit reticulocyte lysates (luciferase reporter); type: biochemical; settings: mean ± SE of at least three independent repeats, read-out: Inhibition of translation—IC50, Reticulocytes
Source text: as §1

[5] = tested on: rabbit reticulocyte lysate translation; parameters: method as in PMID 26264664; settings: rabbit reticulocyte lysates; mean ± SE; read-out: Inhibition of translation—IC50, Reticulocytes; cited from earlier work
[6] = tested on: bacterial translation (E. coli S30 extract); parameters: method as in PMID 26264664; settings: mean ± SE, read-out: Inhibition of translation—IC50, Bacteria; cited from earlier work

Row | Structure (SMILES) | IC50 [1] [nM] | IC50 [2] | Reduced activity in Leishmania compared to bacteria (inhibition of translation) ([2]; Leishmania versus bacterial ribosome, from Table 1) | Misreading activity (UGA stop codon read-through) at IC50 levels [3] [%] | IC50 [4] [nM] | IC50 [5] [nM] | IC50 [6] [nM] | Misreading of the genetic code (result in words) ([3]; at concentrations corresponding to its IC50 value)
1 | CN[C@@H]1[C@@H](O[C@H]2O[C@H](CO)[C@@H](N)[C@H](O)[C@H]2O)OC2C[C@@H](N)[C@@H](O[C@H]3[C@H](O)[C@@H](O)[C@H](N)C[C@@H]3N)OC2[C@@H]1O (stereo partly shown) [APR, apramycin] | 49 ± 3 | 201000 ± 16100 nM | 4 orders of magnitude | 5 | 29000 ± 6000 | – | – | –
2 | CN[C@@H]1[C@@H](O)[C@@H](O[C@@H]2[C@@H](O)[C@H](O[C@H]3O[C@H]([C@@H](C)O)[C@@H](O)[C@H](O)[C@H]3N)[C@@H](N)C[C@H]2N)OC[C@]1(C)O [G418, geneticin] | – | 150 nM and 153 nM | – | – | – | 2000 ± 300 | 9 ± 1.5 | –
3 | CNC(C)C1CCC(N)C(OC2C(N)CC(N)C(OC3OCC(C)(O)C(NC)C3O)C2O)O1 (stereo not shown) [GEN, gentamicin] | 28 ± 4 | 18400 nM | – | – | 62000 ± 9000 | – | – | –
4 | CNC1CC(N)C(O)C(OC2OC(CO)C(O)C3OC4(OC(C(N)CO)C(O)C(O)C4O)OC23)C1O (stereo not shown) [HYG, hygromycin B] | 11 ± 2 | 65 nM and 64.7 nM | – | – | 800 ± 100 | – | – | does not induce misreading
5 | NC[C@@H]1O[C@H](O[C@H]2[C@@H](O)[C@H](O[C@@H]3[C@@H](O)[C@H](N)C[C@H](N)[C@H]3O[C@H]3O[C@H](CN)[C@@H](O)[C@H](O)[C@H]3N)O[C@@H]2CO)[C@H](N)[C@@H](O)[C@@H]1O [NEO, neomycin B] | 11 ± 1 | 82400 nM | – | – | 28000 ± 5000 | – | – | –
6 | NC[C@@H]1O[C@H](O[C@H]2[C@@H](O)[C@H](O[C@@H]3[C@@H](O)[C@H](N)C[C@H](N)[C@H]3O[C@H]3O[C@H](CO)[C@@H](O)[C@H](O)[C@H]3N)O[C@@H]2CO)[C@H](N)[C@@H](O)[C@@H]1O [PAR, paromomycin] | – | 3620 ± 176 nM | – | 26 | – | 57000 ± 4000 | 51 ± 5 | –
